Assay results taken from article PMC7942396, “Drug Repurposing Screen for Compounds Inhibiting the Cytopathic Effect of SARS-CoV-2” (Frontiers in Pharmacology, 2021).
Counter-ions that a name gives are not always drawn. Like-named read-outs stand apart in the source and are kept apart here. Where a SMILES comes first, the peptide text is derived from it. The star is where a group is joined. Cbz = O=C(OCc1ccccc1)*; CH2Cl = ClC*

Columns and labels:
Vero E6 cells = Vero E6 cells without virus; for CC50: read-out: Cytotox CC50
[1] = system: SARS-CoV-2 (USA_WA1/2020); experiment: microbe, parasite or virus in culture; format: cell-based; conditions: for EC50: read-out: CPE EC50
[2] = […], DMSO 0%, no-virus control 100%, hit confirmation
[3] = SARS-CoV-2 CPE assay, Vero E6 cells
[4] = SARS-CoV-2 CPE assay, Vero E6 cells, confirmed anti-SARS-CoV-2 compounds
[5] = SARS-CoV-2 CPE assay, Vero E6 cells, efficacy

Compound | % Cytotox (Vero E6 cells; 72 h) | CPE % Efficacy [1, 2] | EC50 [1] | % Cytotox (Vero E6 cells; cytotoxicity counter-assay) | CC50 (Vero E6 cells; cytotoxicity counter-assay) | CPE % Efficacy [1, 3] | EC50 [1, 3] | EC50 [1, 4] | CPE % Efficacy [1, 5]
CC(C)C[C@H](NC(=O)CNC(=O)OCc1ccccc1)C(=O)N[C@@H](Cc1ccccc1)C(=O)CCl [Z-Gly-Leu-Phe-chloromethyl ketone, reference compound] (Cbz-Gly-Leu-Phe-CH2Cl) | <30% | 87.2% | 1.3 µM |  |  |  |  |  | 
O=C(NCCCN1CCN(c2ccccc2F)CC1)c1ccc2nc(Cc3ccccc3)oc2c1 [NCGC00133175] |  |  |  | 25.5% | 15.8 µM | 95.1% | 14.1 µM |  | 
Cn1cc(-c2ccncc2)c(-c2ccc(OCc3ccc4ccccc4n3)cc2)n1 [MP-10] |  |  |  | 85.1% |  |  |  | 4.47 µM | 31.1%
CC1(CN2CCC(n3c(=O)[nH]c4ccccc43)CC2)OCc2ccccc2-n2cccc21.O=C(O)/C=C\C(=O)O (stereo not drawn) [Zaldaride maleate] |  |  |  | 0.0% |  |  |  | 11.2 µM | 81.7%
Cc1cccc(Nc2nc(N[C@@H]3CCCC[C@@H]3N)ncc2C(N)=O)c1 [PRT-060318] |  |  |  | 45.2% | 12.6 µM |  |  | 11.2 µM | 56.9%
CCC(C)C(=O)OC12C(OC(C)=O)C(C)C3(O)C(C=C(CO)CC4(O)C(=O)C(C)=CC43)C1C2(C)C (stereo not drawn) [NCGC00380715] |  |  |  | 0.0% |  |  |  | 0.98 µM | 45.0%
COc1ccc(CCNCc2ccc(OC)c3ccccc23)cc1 [SBI-0087702] |  |  |  | 24.6% | 7.08 µM |  |  | 11.2 µM | 106.7%
O=S(=O)(c1cccc2c(Cl)cccc12)N1CCCNCC1 [ML-9] |  |  |  | 23.3% | 11.2 µM | 91.0% | 12.6 µM |  | 
GSK 9027 |  |  |  | 24.3% |  | 104.1% | 12.6 µM |  | 
COc1ccc(C(C)(C)C)cc1CN[C@H]1C2CCN(CC2)[C@H]1C(c1ccccc1)c1ccccc1 [Maropitant] |  |  |  | 108.2% |  |  |  | 3.55 µM | 83.7%
CC/C(=C(/CC)c1ccc(O)c(CN(CC)CC)c1)c1ccc(O)c(CN(CC)CC)c1 [NSC 33994, reference compound] | <30% | 107.6% | 8.9 µM |  |  |  |  |  | 
CO[C@@H]1[C@@H](O[C@@H]2O[C@H](C)[C@@H](O[C@H]3C[C@@](C)(O)[C@@H](O)[C@H](C)O3)[C@H](N(C)C)[C@H]2O)[C@@H](CC=O)C[C@@H](C)[C@@H](O[C@H]2CC[C@H](N(C)C)[C@@H](C)O2)/C=C/C=C/C[C@@H](C)OC(=O)C[C@H]1OC(C)=O [Spiramycin II] |  |  |  | 0.0% |  | 33.4% | 14.1 µM |  | 
Cc1cccc2c1CC[C@H](CN1CCC(c3c(Cl)cccc3Cl)CC1)C[C@@H]2O.Cl [SB 612111 hydrochloride] |  |  |  | 59.7% | 12.6 µM |  |  | 8.91 µM | 53.8%
CC[C@H](NC(=O)[C@H](CS(=O)(=O)CC1CC1)N[C@@H](c1ccc(F)cc1)C(F)(F)F)C(=O)C(=O)NC1CC1 [VBY-825, reference compound] | <30% | 97.8% | 0.14 µM |  |  |  |  |  | 
NC(=O)c1ccccc1Nc1ccnc(Nc2cccc(O)c2)n1 [DB-07268] |  |  |  | 40.9% | 1 µM |  |  | 10 µM | 52.8%
COc1ccc(NS(=O)(=O)c2sc3ccc(Cl)cc3c2C)cc1N1CCNCC1 [SB 271046 hydrochloride, reference compound] | <30% | 107.5% | 10 µM |  |  |  |  |  | 
COC(=O)CC[C@@H](C)[C@H]1CC[C@H]2[C@@H]3CC[C@@H]4C[C@H](OC(C)=O)CC[C@]4(C)[C@H]3C[C@H](O)[C@]12C (racemic) |  |  |  | 0.0% |  | 62.5% | 12.6 µM |  | 
COc1cc2ncnc(Sc3nnc(C)s3)c2cc1OC [SKLB1002] |  |  |  | 34.8% | 7.08 µM |  |  | 3.55 µM | 73.0%
CC(C)CCC[C@@H](C)[C@H]1CC[C@H]2[C@@H]3CC=C4C[C@@H](OC(=O)NCCN(C)C)CC[C@]4(C)[C@H]3CC[C@]12C.Cl |  |  |  | 37.0% | 10 µM |  |  | 11.2 µM | 40.5%
Cc1cc(CC(C)CC(C)(C)C)n(O)c(=O)c1.NCCO (stereo not drawn) [Piroctone Olamine] |  |  |  | 46.6% | 1.78 µM |  |  | 4.47 µM | 61.2%
COc1cccc(-n2c(=O)[nH]c3cc(Cl)n(-c4ccc(-c5cccc(OC)c5O)cc4)c3c2=O)c1 [GSK621] |  |  |  | 58.4% |  |  |  | 11.2 µM | 77.9%
O=C(NCCCCN1CCN(c2cccc(Cl)c2Cl)CC1)c1cc2ccccc2s1 [FAUC-365] |  |  |  | 35.5% | 12.6 µM |  |  | 4.47 µM | 36.5%
CNC(=O)c1ccc2c(C(=Nc3cccc(CN(C)C)c3)c3ccccc3)c(O)[nH]c2c1 [NCGC00346543] |  |  |  | 22.6% |  | 94.9% | 12.6 µM |  | 
Cc1c(CCOc2ccc(C(=O)O)cc2)c2cc(Cl)ccc2n1C(c1ccccc1)c1ccccc1 [CDIBA] |  |  |  | 77.1% | 12.6 µM | 52.2% | 14.1 µM |  | 
CCCCCCOc1ccc(C(=N)N(CCCC)CCCC)c2ccccc12.Cl [Bunamidine hydrochloride] |  |  |  | 109.2% | 11.2 µM |  |  | 4.47 µM | 84.9%
CN1CCCCC1Cn1cc(C(=O)c2cc([N+](=O)[O-])ccc2I)c2ccccc21 (stereo not drawn) [AM1241, reference compound] | <30% | 97.6% | 10 µM |  |  |  |  |  | 
HBX 19818 |  |  |  | 39.1% |  |  |  | 7.94 µM | 80.9%
N#Cc1c(C2CCNCC2)cc(-c2c(O)cccc2OCC2CC2)nc1N [IKK-2 inhibitor VIII, reference compound] | <30% | 91.7% | 7.1 µM |  |  |  |  |  | 
